Experimental findings from US7132420B2, “Aspartic protease inhibitors” (The United States of America as represented by the …, priority 1999, dated 2006) are described below.

For orientation: Ki means the equilibrium dissociation constant of an inhibitor or competing ligand from its target. For orientation: EC50 means the concentration at which the effect is half-maximal. High values mean lower potency in that assay, low ones higher potency in that assay. As a reminder, the IC50 is the concentration at which inhibition is half-maximal. The low end stands for greater potency in that assay, the high end for weaker potency in that assay. Broadly, the Cmax is the maximum level reached in the sampled fluid or tissue.

Where two headings read alike, the source gives them in different places.

Series [1] concerns the target 32I mutant HIV-1 protease (Human immunodeficiency virus type 1 group M subtype B, UniProt P04585, V520I). Description: HIV protease assay, 32I mutant (Ki). Format: biochemical. As to conditions: Table 1; read-out: 321 Ki. The text has this:
(§1) This example illustrates the HIV-1 protease inhibition activity (Ki), HIV-1 antiviral data (EC50), and the toxicity against normal cells (IC50), for particular compounds of formula (I). The HIV protease assay was done according to the protocol described in Kageyama et al, Antimicrob. Agents Chemother., 37, 272 (1993). The HIV antiviral assay was done according to the protocol described in Weislow et al., J. National Cancer Inst. 81, 577 (1989).

In series [2] the target is 84V mutant HIV-1 protease (Human immunodeficiency virus type 1 group M subtype B, UniProt P04585, I572V). In words: HIV protease assay, 84V mutant (Ki). It is filed as biochemical. As to conditions: Table 1.
Text: as §1

In series [3] the target is cathepsin D (Homo sapiens, UniProt P07339). In words: cathepsin D assay (Ki). Format: biochemical. As to conditions: Table 2; read-out: Cath D Ki. The text has this:
(§2) The HIV protease assay was done according to the protocol described in Example 35. The plasmepsin II assay was done according to the protocol used in Silva et al., Proc. Nat. Acad. Sci. USA, 93, pp. 10034–10039, September 1996 (Biochemstry). The cathepsin D assay was done according to the protocol described in Gulnik et al., FEBS Letters, 413, 379–384 (1997). The compounds illustrated in Table 2 are of the general formula (II), as described in Example 35.

The test system of series [4] is HIV-1. In words: HIV antiviral assay (EC50). It is filed as cell-based. The text has this:
The HIV protease assay was done according to the protocol described in Kageyama et al, Antimicrob. Agents Chemother., 37, 272 (1993). The HIV antiviral assay was done according to the protocol described in Weislow et al., J. National Cancer Inst. 81, 577 (1989).

Series [5] concerns the target 82F/84V mutant HIV-1 protease (Human immunodeficiency virus type 1 group M subtype B, UniProt P04585, I572V/V570F). It is filed as biochemical. As to conditions: Table 1.
Text: as §1

Series [6] addresses plasmepsin II (Plasmodium falciparum, UniProt P46925). In words: biochemical. It is filed as biochemical.
Text: as §2

Series [7] relates to normal cells. In words: toxicity against normal cells (IC50). Format: cell-based.
Text: as §1

A short description of series [8]: Rat IV pharmacokinetics. It is filed as in vivo, rats. As to conditions: IV about 5 mg/kg. As to the method: (§3) This example illustrates the oral bioavailability of various compounds of the present invention. […] Drug concentrations were measured by centrifuging plasma samples, extracting the supernatants with tert-butyl methyl ether, and analyzing the extracts by HPLC. Oral bioavailability (% F) was calculated on the basis of the ratio of the amount of drug absorbed systemically from oral administration (AUC p.o.) relative to the amount of systemic drug obtained from intravenous administration (AUC iv).

Series [9] can be described thus: Rat P.O. pharmacokinetics and oral bioavailability. Format: in vivo, rats. As to conditions: for Cmax / Rat P.O. tmax: P.O. about 37 mg/kg, PEG 300 vehicle. As to the method: as §3
Series [10] concerns the target HIV-1 protease (Human immunodeficiency virus type 1 group M subtype B, UniProt P04585). In words: HIV protease assay (Ki). It is filed as biochemical. As to conditions: for Ki: read-out: HIV-1 Ki.
Text: as §1, §2

Series [11] is described as follows: IV-PO crossover oral bioavailability studies. Format: in vivo. As to conditions: two Sprague-Dawley rats; IV 7 and 3 mg/kg (DMSO), oral 22 and 50 mg/kg (PEG300). As to the method: Compound (19) was tested in IV-PO crossover studies in two Sprague-Dawley rats. For the IV portion of the studies, compound (19) was given at doses of 7 and 3 mg/kg, as a short infusion (30–60 seconds) via a jugular vein catheter using a vehicle of DMSO and a dose volume of 1 ml/kg. Heparinized blood samples were collected at close intervals through 3 hours, the plasma was separated, and plasma concentrations of compound (19) were determined by HPLC. One to two weeks later, the same rats were given doses of 22 and 50 mg/kg by gastric intubation. The vehicle was PEG300 and the dose volume was 10 ml/kg. Blood samples were collected at regular intervals through 24 hours, and analyzed as above. The oral bioavailability in both of these studies was 100%. Based on the excellent oral bioavailability of compound (19), it is expected that compound (19) will be an effective inhibitor of systemic aspartic protease when administered orally. Other compounds of the present invention also are expected to have-good oral bioavailability.

Setting [12] is: comparison of Table 2 Ki values.

plasmepsin II, sequence (P46925 125-453): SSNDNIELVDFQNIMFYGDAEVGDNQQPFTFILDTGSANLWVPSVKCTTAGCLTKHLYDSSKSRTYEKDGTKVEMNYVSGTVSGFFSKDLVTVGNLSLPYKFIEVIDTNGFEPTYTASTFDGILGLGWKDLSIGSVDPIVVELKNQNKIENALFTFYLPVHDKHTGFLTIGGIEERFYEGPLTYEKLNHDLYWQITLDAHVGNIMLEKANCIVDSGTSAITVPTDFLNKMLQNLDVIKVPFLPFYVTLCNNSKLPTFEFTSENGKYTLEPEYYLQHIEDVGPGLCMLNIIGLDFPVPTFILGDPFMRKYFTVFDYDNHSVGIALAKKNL
cathepsin D, sequence (P07339 65-412): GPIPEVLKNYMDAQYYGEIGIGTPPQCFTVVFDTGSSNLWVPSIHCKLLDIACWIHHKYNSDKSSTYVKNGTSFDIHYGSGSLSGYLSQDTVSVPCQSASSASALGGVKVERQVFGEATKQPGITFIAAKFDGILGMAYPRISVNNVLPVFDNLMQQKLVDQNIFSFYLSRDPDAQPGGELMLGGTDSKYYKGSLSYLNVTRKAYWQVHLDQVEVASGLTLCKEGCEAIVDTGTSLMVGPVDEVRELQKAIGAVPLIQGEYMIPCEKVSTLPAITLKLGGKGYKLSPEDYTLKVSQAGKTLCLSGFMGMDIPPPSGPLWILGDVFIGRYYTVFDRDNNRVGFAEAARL

As for `Cc1cccc(C)c1OCC(=O)N[C@@H](Cc1ccccc1)[C@@H](O)C[C@H](CC(C)C)NC(=O)[C@H](C(C)C)N1CCCNC1=O` [(16)], the Ki in [1] was 0.031 nM; in series [2], 0.091 nM; in [3], 3300 nM; in series [5] it was 0.137 nM; in [6] (Table 2, read-out: Pls II Ki), 357 nM; in [10] (Table 1), 0.007 nM. Further, the Ki was 0.007 nM in series [10] (Table 2) and 0.008 nM in [10] (Table 3). Moreover, the EC50 in [4] (Table 1), in series [4] (Table 2) and in series [4] (Table 3) was 23 nM each time. Moreover, in series [6] (setting [12]), the “potency relative to compound (24) against plasmepsin II” value is given as “about ten-fold more potent than compound (24)”. In series [7] (Table 2), the IC50 was more than 100000 nM. For the same molecule, the “Rat IV CL” value in [8] is 9.8 mL/min/kg. In [8], the “Rat IV t1/2” value is 27 min. Besides, the “Rat P.O. % F (%)” value in series [9] (AUC p.o. relative to AUC iv) is on record as 1%. This molecule had a Cmax in series [9] of 0.269 µM. Also, the “Rat P.O. tmax” value in [9] was in the range of 10 to 15 min. In series [10], the “inhibitory activity against HIV-1 protease, in words” value was “excellent potency”. In addition, the “potency relative to compound (24) against HIV-1 protease” value in series [10] (setting [12]) was “about ten-fold more potent than compound (24)”.
In series [4] (Table 1), `CC(C)C[C@@H](C[C@H](O)[C@H](Cc1ccccc1)NC(=O)OCc1cncs1)NC(=O)[C@H](C(C)C)N1CCCNC1=O` [Compound (19), (2S,3S,5S)-5-[N-[[3-methyl-2S-(2-oxo-tetrahydropyrimidin-1-yl)]butyryl]amino]-2-[N-[(thiazol-5-yl-methoxy)carbonyl]amino]-3-hydroxy-7-methyl-1-phenyloctane] had a concentration for a half-maximal effect (EC50) of 500 nM. In series [4] (Table 3), this molecule came in with a concentration for a half-maximal effect (EC50) of 500 nM. This molecule came in with an oral bioavailability in [11] of 100%. For the same molecule, in [7] (Table 1), the IC50 was more than 100000 nM. Also, in series [8], the “Rat IV CL” value was 25 mL/min/kg and the “Rat IV t1/2” value turned out to be 18 min. Also, in series [9], the highest concentration (Cmax) was found to be 24.8 µM and the “Rat P.O. tmax” value was in the range of 120 to 360 min. Moreover, in series [9] (oral), the “Cmax when administered orally, in words” value is “micromolar”. Also, in series [10] (Table 1), the Ki came out at 0.07 ± 0.01 nM. The Ki in series [10] (Table 3) turned out to be 0.07 nM.
